In one assay the test system is SK-MEL-3 (melanoma). Description: Cell proliferation measurement (Cell Titer Glo), SK-MEL-3. In kind it is cell-based. As to conditions: Homo sapiens, SK-MEL3, SK-MEL-3 cells, 72 h treatment, read-out: Anti-proliferation IC50 SK-MEL-3 (melanoma). Summed up:
(§1)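 Cells (1000/well; 500 for HeLa) plated overnight at 37 °C, then exposed to a ≥10-point compound dilution series for 72 h at 37 °C, DMSO 0.3% final as vehicle. Viability read by CellTiter-Glo luminescence; IC50 from 4-parameter fit against untreated wells.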

Another assay addresses T1, human full length PDE3A (Homo sapiens, UniProt Q14432).
T1 construct: Sf9 cells overexpressing human full length PDE3A; purchased SB Drug Discovery, UK; host or cells: Sf9 cells (cell extract)
The experiment in a line: PDE3A enzyme inhibition (3H-cAMP Scintillation Proximity Assay). Format: biochemical. As to conditions: PDE3A cell extract from Sf9 cells, 60 min room temperature; read-out: Target IC50 PDE3A IC50. Summed up: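 Sf9 cell extract overexpressing human full-length PDE3A, diluted for linear kinetics (<70% substrate used), in 50 mM Tris/HCl pH 7.5, 8.3 mM MgCl2, 1.7 mM EDTA, 0.2% BSA. [8-3H]cAMP substrate, 60 min at room temperature, yttrium SPA bead read-out; IC50 from sigmoidal curves of % activity.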
A general note: In a scintillation proximity assay essentially only radioactivity close to the scintillant gives light.

Another assay concerns the target T2, human full length PDE3B (Homo sapiens, UniProt Q13370).
T2 construct: Sf9 cells overexpressing human full length PDE3B; purchased SB Drug Discovery, UK; host or cells: Sf9 cells (cell extract)
The experiment in a line: PDE3B enzyme inhibition (3H-cAMP Scintillation Proximity Assay). Format: biochemical. As to conditions: PDE3B cell extract from Sf9 cells, 60 min room temperature; read-out: Target IC50 PDE3B IC50. Summed up: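 SPA with Sf9 cell extract overexpressing human full-length PDE3B, diluted for linear kinetics and <70% substrate turnover, in 50 mM Tris/HCl pH 7.5, 8.3 mM MgCl2, 1.7 mM EDTA, 0.2% BSA. [8-3H]cAMP substrate, 60 min at room temperature, stopped with yttrium SPA beads. IC50 from sigmoidal fit of % activity vs log concentration.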

Assay [1] concerns HeLa cells (cervical cancer). The experiment in a line: Cell proliferation measurement (Cell Titer Glo), HeLa. In kind it is cell-based. The conditions noted are these: Homo sapiens, 72 h treatment, read-out: Anti-proliferation IC50 HeLa (Cervical cancer). A digest of the protocol:
as §1
(In general: In ATP-based viability assays light output follows the ATP content of the culture.)

Some results are limits rather than exact numbers.

T2 sequence (Q13370 whole entry): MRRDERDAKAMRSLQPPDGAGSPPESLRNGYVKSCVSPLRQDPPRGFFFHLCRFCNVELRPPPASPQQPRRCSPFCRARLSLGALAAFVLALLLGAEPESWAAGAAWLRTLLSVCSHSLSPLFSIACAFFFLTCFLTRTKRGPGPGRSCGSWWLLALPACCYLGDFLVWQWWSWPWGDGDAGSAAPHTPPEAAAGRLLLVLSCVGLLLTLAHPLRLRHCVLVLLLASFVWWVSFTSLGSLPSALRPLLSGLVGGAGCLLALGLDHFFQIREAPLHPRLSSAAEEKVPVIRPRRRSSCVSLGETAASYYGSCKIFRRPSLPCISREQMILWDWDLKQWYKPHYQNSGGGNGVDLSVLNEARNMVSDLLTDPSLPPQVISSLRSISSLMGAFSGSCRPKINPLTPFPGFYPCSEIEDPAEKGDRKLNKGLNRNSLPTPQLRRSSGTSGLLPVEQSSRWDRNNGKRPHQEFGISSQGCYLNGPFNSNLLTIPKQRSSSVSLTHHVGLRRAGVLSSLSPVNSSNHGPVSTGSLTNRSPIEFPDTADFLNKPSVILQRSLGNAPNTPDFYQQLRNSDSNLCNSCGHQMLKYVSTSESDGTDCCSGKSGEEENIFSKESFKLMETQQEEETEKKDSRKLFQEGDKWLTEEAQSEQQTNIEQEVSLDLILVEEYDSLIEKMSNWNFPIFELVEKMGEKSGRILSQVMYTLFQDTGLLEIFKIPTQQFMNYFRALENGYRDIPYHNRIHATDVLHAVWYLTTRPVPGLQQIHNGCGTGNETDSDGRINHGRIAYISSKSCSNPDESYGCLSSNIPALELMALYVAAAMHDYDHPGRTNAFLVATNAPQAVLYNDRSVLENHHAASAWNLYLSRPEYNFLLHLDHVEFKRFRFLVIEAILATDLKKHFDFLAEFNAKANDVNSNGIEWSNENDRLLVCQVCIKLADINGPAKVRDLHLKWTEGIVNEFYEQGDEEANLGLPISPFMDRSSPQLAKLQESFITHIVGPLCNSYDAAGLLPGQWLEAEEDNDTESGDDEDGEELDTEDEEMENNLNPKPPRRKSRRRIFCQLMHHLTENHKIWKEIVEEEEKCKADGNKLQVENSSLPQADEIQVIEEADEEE
T1 sequence (Q14432 whole entry): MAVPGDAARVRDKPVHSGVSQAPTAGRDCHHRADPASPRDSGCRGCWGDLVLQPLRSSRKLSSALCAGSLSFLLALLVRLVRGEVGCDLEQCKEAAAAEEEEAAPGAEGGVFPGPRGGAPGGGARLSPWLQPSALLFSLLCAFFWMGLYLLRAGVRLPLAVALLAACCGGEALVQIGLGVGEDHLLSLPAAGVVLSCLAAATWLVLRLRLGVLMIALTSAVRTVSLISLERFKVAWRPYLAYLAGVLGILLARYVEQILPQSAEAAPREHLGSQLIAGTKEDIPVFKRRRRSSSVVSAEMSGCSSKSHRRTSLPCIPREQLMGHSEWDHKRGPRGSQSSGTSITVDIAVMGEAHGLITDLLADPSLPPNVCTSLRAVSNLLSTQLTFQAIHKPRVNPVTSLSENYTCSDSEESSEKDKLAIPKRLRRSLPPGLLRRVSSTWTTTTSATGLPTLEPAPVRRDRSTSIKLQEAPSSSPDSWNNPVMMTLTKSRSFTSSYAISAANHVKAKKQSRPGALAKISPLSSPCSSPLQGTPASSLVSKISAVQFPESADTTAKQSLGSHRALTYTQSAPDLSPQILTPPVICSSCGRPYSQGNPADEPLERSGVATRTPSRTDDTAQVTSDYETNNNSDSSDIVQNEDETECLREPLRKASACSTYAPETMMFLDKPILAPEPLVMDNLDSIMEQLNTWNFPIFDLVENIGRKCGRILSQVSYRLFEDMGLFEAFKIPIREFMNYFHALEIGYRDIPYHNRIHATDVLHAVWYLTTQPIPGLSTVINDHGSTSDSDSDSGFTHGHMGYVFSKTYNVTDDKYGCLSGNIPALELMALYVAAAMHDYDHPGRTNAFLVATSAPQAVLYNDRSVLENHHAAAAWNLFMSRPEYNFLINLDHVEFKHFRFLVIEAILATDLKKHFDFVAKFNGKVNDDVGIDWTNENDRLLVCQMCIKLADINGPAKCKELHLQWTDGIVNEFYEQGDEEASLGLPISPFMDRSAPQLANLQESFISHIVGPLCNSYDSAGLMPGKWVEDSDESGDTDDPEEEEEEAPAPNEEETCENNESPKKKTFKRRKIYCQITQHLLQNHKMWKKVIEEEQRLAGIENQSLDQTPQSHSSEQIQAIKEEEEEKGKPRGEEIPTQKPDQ

For the compound `Nc1ccccc1-c1ccc(C2=NNC(=O)CC2)cc1F` [Example 66, 6-(2′-amino-2-fluoro[1,1′-biphenyl]-4-yl)-4,5-dihydropyridazin-3(2H)-one], the IC50 in the assay with SK-MEL-3 (melanoma) was above 100 nM; at human full length PDE3A, 330 nM; at human full length PDE3B it was 290 nM; in assay [1], above 100 nM.
Turning to `Cc1ccncc1-c1ccc(C2=NNC(=O)CC2)cc1F` [Example 67, 6-[3-fluoro-4-(4-methylpyridin-3-yl)phenyl]-4,5-dihydropyridazin-3(2H)-one], the IC50 in the assay with SK-MEL-3 (melanoma) was 3.66 nM; on human full length PDE3A, 56 nM; on human full length PDE3B, 28 nM; in assay [1], 2.11 nM.
Consider `Cc1ccc(F)c(-c2ccc(C3=NNC(=O)CC3)cc2F)c1` [Example 68, 6-(2,2′-difluoro-5′-methyl[1,1′-biphenyl]-4-yl)-4,5-dihydropyridazin-3(2H)-one], for which the IC50 came to 71.2 nM in the assay with SK-MEL-3 (melanoma), 160 nM on human full length PDE3A, 100 nM on human full length PDE3B and 36.3 nM in assay [1].
The like results for `O=C1CCC(c2ccc(-c3ccncc3Cl)c(F)c2)=NN1` [Example 69, 6-[4-(3-chloropyridin-4-yl)-3-fluorophenyl]-4,5-dihydropyridazin-3(2H)-one] were, in that order, 38.6 nM, 140 nM, 95 nM and 18.3 nM.
On the same counts, the results for `COc1ncccc1-c1ccc(C2=NNC(=O)CC2)cc1F` [Example 70, 6-[3-fluoro-4-(2-methoxypyridin-3-yl)phenyl]-4,5-dihydropyridazin-3(2H)-one] are 39.8 nM, 57 nM, 50 nM and 22.9 nM.
As to `O=C1CCC(c2ccc(-c3ccc(F)nc3)c(F)c2)=NN1` [Example 71, 6-[3-fluoro-4-(6-fluoropyridin-3-yl)phenyl]-4,5-dihydropyridazin-3(2H)-one], the IC50 in the assay with SK-MEL-3 (melanoma) amounted to 11.6 nM; on human full length PDE3A, 120 nM; at human full length PDE3B, 120 nM; in assay [1], 7.82 nM.
Take `O=C1CCC(c2ccc(-c3cccnc3F)c(F)c2)=NN1` [Example 72, 6-[3-fluoro-4-(2-fluoropyridin-3-yl)phenyl]-4,5-dihydropyridazin-3(2H)-one]: the IC50 was 6.25 nM with SK-MEL-3 (melanoma), 39 nM at human full length PDE3A, 35 nM at human full length PDE3B and 4.27 nM in assay [1].
In the case of `Cc1cnccc1-c1ccc(C2=NNC(=O)CC2)cc1F` [Example 73, 6-[3-fluoro-4-(3-methylpyridin-4-yl)phenyl]-4,5-dihydropyridazin-3(2H)-one], the IC50 stood at 15.4 nM in the assay with SK-MEL-3 (melanoma), 52 nM on human full length PDE3A, 39 nM on human full length PDE3B and 9.52 nM in assay [1].
On the same counts, the results for `O=C1CCC(c2ccc(-c3ccc4cc[nH]c4c3)c(F)c2)=NN1` [Example 74, 6-[3-fluoro-4-(1H-indol-6-yl)phenyl]-4,5-dihydropyridazin-3(2H)-one] are 21 nM, 110 nM, 180 nM and 13.3 nM.
Turning to `O=C1CCC(c2ccc(-c3cccc4[nH]ccc34)c(F)c2)=NN1` [Example 75, 6-[3-fluoro-4-(1H-indol-4-yl)phenyl]-4,5-dihydropyridazin-3(2H)-one], the IC50 worked out at 43.5 nM in the assay with SK-MEL-3 (melanoma), 100 nM on human full length PDE3A, 120 nM at human full length PDE3B and 27.6 nM in assay [1].
As for `Nc1ccc(-c2ccc(C3=NNC(=O)CC3)cc2F)cc1` [Example 76, 6-(4′-amino-2-fluoro[1,1′-biphenyl]-4-yl)-4,5-dihydropyridazin-3(2H)-one], the IC50 in the assay on SK-MEL-3 (melanoma) came out at 8.73 nM; on human full length PDE3A, 90 nM; on human full length PDE3B, 89 nM; in assay [1], 5.52 nM.
`Cc1ccccc1-c1ccc(C2=NNC(=O)CC2)cc1F` [Example 77, 6-(2-fluoro-2′-methyl[1,1′-biphenyl]-4-yl)-4,5-dihydropyridazin-3(2H)-one]: the IC50 with SK-MEL-3 (melanoma) stood at 4.53 nM; on human full length PDE3A it was 100 nM; at human full length PDE3B, 80 nM; in assay [1], 2.04 nM.
As for `COc1cccc(-c2ccc(C3=NNC(=O)CC3)cc2F)c1OC` [Example 78, 6-(2-fluoro-2′,3′-dimethoxy[1,1′-biphenyl]-4-yl)-4,5-dihydropyridazin-3(2H)-one], the IC50 with SK-MEL-3 (melanoma) was 69 nM; at human full length PDE3A, 320 nM; at human full length PDE3B, 600 nM; in assay [1], 53.3 nM.
For the compound `O=C1CCC(c2ccc(C3=CCCCC3)c(F)c2)=NN1` [Example 79, 6-(2-fluoro-2′,3′,4′,5′-tetrahydro[1,1′-biphenyl]-4-yl)-4,5-dihydropyridazin-3(2H)-one], the IC50 was 6.15 nM in the assay on SK-MEL-3 (melanoma), 170 nM on human full length PDE3A, 170 nM on human full length PDE3B and 4.47 nM in assay [1].
For `O=C1CCC(c2ccc(C3=CCCC3)c(F)c2)=NN1` [Example 80, 6-[4-(cyclopent-1-en-1-yl)-3-fluorophenyl]-4,5-dihydropyridazin-3(2H)-one], the IC50 in the assay on SK-MEL-3 (melanoma) was 4.13 nM; at human full length PDE3A, 220 nM; on human full length PDE3B, 310 nM; in assay [1], 2.67 nM.
On to `CCc1ccccc1-c1ccc(C2=NNC(=O)CC2)cc1F` [Example 81, 6-(2′-ethyl-2-fluoro[1,1′-biphenyl]-4-yl)-4,5-dihydropyridazin-3(2H)-one], for which the IC50 amounted to 26.3 nM in the assay with SK-MEL-3 (melanoma), 370 nM on human full length PDE3A, 230 nM at human full length PDE3B and 13.9 nM in assay [1].
Take `COc1ccc(-c2ccc(C3=NNC(=O)CC3)cc2F)cn1` [Example 82, 6-[3-fluoro-4-(6-methoxypyridin-3-yl)phenyl]-4,5-dihydropyridazin-3(2H)-one]: the IC50 in the assay with SK-MEL-3 (melanoma) was found to be 23.6 nM; on human full length PDE3A, 83 nM; on human full length PDE3B it was 85 nM; in assay [1] it was 14 nM.
Consider `O=C1CCC(c2ccc(-c3ccc(F)c(Cl)c3)c(F)c2)=NN1` [Example 83, 6-(3′-chloro-2,4′-difluoro[1,1′-biphenyl]-4-yl)-4,5-dihydropyridazin-3(2H)-one], for which the IC50 in the assay with SK-MEL-3 (melanoma) came to 61.8 nM; on human full length PDE3A, 560 nM; at human full length PDE3B it was 280 nM; in assay [1], 39.7 nM.
The like results for `Cc1cc(-c2ccc(C3=NNC(=O)CC3)cc2F)ccc1F` [Example 84, 6-(2,4′-difluoro-3′-methyl[1,1′-biphenyl]-4-yl)-4,5-dihydropyridazin-3(2H)-one] were, in that order, 41 nM, 270 nM, 220 nM and 16.1 nM.
For the compound `Cc1cccc(-c2ccc(C3=NNC(=O)CC3)cc2F)c1C` [Example 85, 6-(2-fluoro-2′,3′-dimethyl[1,1′-biphenyl]-4-yl)-4,5-dihydropyridazin-3(2H)-one], the IC50 in the assay on SK-MEL-3 (melanoma) stood at 40.4 nM; on human full length PDE3A it was 240 nM; at human full length PDE3B it was 150 nM; in assay [1], 18.9 nM.
On to `COc1ccc(-c2ccc(C3=NNC(=O)CC3)cc2F)cc1` [Example 86, 6-(2-fluoro-4′-methoxy[1,1′-biphenyl]-4-yl)-4,5-dihydropyridazin-3(2H)-one], for which the IC50 with SK-MEL-3 (melanoma) turned out to be 59.8 nM; at human full length PDE3A, 280 nM; at human full length PDE3B, 310 nM; in assay [1] it was 10.6 nM.
On the same counts, the results for `Cc1ccc(-c2ccc(C3=NNC(=O)CC3)cc2F)cc1` [Example 87, 6-(2-fluoro-4′-methyl[1,1′-biphenyl]-4-yl)-4,5-dihydropyridazin-3(2H)-one] are 8.15 nM, 385 nM, 215 nM and 3.72 nM.
As to `Cc1ccc(C)c(-c2ccc(C3=NNC(=O)CC3)cc2F)c1` [Example 88, 6-(2-fluoro-2′,5′-dimethyl[1,1′-biphenyl]-4-yl)-4,5-dihydropyridazin-3(2H)-one], the IC50 was above 100 nM in the assay with SK-MEL-3 (melanoma), 230 nM at human full length PDE3A, 230 nM at human full length PDE3B and 91.6 nM in assay [1].
For `N#Cc1ccc(F)c(-c2ccc(C3=NNC(=O)CC3)cc2F)c1` [Example 89, 2′,6-difluoro-4′-(6-oxo-1,4,5,6-tetrahydropyridazin-3-yl)[1,1′-biphenyl]-3-carbonitrile], the IC50 in the assay on SK-MEL-3 (melanoma) is above 100 nM; at human full length PDE3A, 140 nM; at human full length PDE3B, 150 nM; in assay [1], 74.3 nM.
Regarding `Cc1cc(C2=NNC(=O)CC2)ccc1-c1ccnc(N)c1` [Example 90, 6-[4-(2-aminopyridin-4-yl)-3-methylphenyl]-4,5-dihydropyridazin-3(2H)-one], the IC50 in the assay on SK-MEL-3 (melanoma) is above 100 nM; at human full length PDE3A, 47 nM; on human full length PDE3B it was 65 nM; in assay [1], 16 nM.

(Values after US11897867B2, “6-phenyl-4,5-dihydropyridazin-3(2H)-one derivatives as PDE3A and PDE3B inhibitors for treating cancer” (Bayer Aktiengesellschaft, priority 2017, dated 2024).)
